The text below walks through data of patent publication US20030044399A1, “Method of treatment” (SmithKline Beecham Corporation, priority 1998, published 2003).

The assay deals with Cruzain (Trypanosoma cruzi, UniProt P25779). Description: Cysteine protease inhibition, progress curve method, cruzain. Type of assay: biochemical. The following applies: 4 uM Ac-Lys-Glu-Lys-Leu-Arg-AMC, 100 mM Na acetate pH 5.5, 5 mM cysteine; read-out: Cruzain Ki. On the procedure: Standard assay conditions for the determination of kinetic constants used 10 uM fluorogenic peptide substrate, Cbz-Phe-Arg-AMC for the cysteine proteases from Leishmania spp and Schistosoma Mansoni, Cbz-Leu-Arg-AMC for the cysteine proteases from Plasmodium falciparum and Trypanosoma brucei rhodesiensi, and Ac-Lys-Glu-Lys-Leu-Arg-AMC (4 uM final substrate concentration) for the cysteine protease from Trypoanosoma cruzi, and were determined in 100 mM Na acetate at pH 5.5 containing 5 mM cysteine. Stock substrate solutions were prepared at concentrations of […] in DMSO with 10 uM (4 uM for Ac-Lys-Glu-Lys-Leu-Arg-AMC) final substrate concentration in the assays. The final DMSO concentration was 2% and the final volume was 100 uL. All assays were conducted at ambient temperature. Product progress curves were generated over 20 to 30 minutes following formation of AMC product.
Cruzain, sequence (P25779 123-337): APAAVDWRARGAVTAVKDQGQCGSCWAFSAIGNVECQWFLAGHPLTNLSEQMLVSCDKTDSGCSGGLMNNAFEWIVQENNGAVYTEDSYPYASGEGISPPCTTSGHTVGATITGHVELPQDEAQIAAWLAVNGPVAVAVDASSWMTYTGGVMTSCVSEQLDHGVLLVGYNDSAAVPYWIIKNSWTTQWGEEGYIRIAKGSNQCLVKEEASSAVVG
Potential inhibitors were evaluated using the progress curve method. Assays were carried out in the presence of variable concentrations of test compound. Reactions were initiated by addition of enzyme to buffered solutions of inhibitor and substrate. Data analysis was conducted according to one of two procedures depending on the appearance of the progress curves in the presence of inhibitors. For those compounds whose progress curves were linear, apparent inhibition constants (Ki,app) were calculated according to equation 1 (Brandt et al., Biochemitsry, 1989, 28, 140):
v=VmA/[Ka(1+I/Ki,app)+A] (1)
Where v is the velocity of the reaction with maximal velocity Vm, A is the concentration of substrate with Michaelis constant of Ka, and I is the concentration of inhibitor.
[AMC]=vsst+(v0−vss)[1−exp (−kobst)]/kobs (2)
Where [AMC] is the concentration of product formed over time t, v0 is the initial reaction velocity and vss is the final steady state rate. Values for kobs were then analyzed as a linear function of inhibitor concentration to generate an apparent second order rate constant (kobs/inhibitor concentration or kobs/[I]) describing the time-dependent inhibition. A complete discussion of this kinetic treatment has been fully described (Morrison et al., Adv. Enzymol. Relat. Areas Mol. Biol., 1988, 61, 201).
Exemplary inhibition data for the compounds used in the present method collected in accordance with the above-described procedure are listed in Table I.
What is called Ki is a measure of affinity in units of concentration, obtained from inhibition or displacement. As to “4-[2-(2-{(S)-3-Methyl-1[3-oxo-1-(pridine-2-sulfonyl)-azepan-4-ylcarbamoyl]-butylcarbamoyl}-benzofuran-5-yloxy)-ethyl]-piperazine-1-carboxylic acid tert-butyl ester [Example 22]”, the inhibitory constant (Ki) is 14 nM.

For the compound `CC(C)C[C@@H](NC(=O)c1cc2cc(OCCN3CCOCC3)ccc2o1)C(=O)N[C@@H]1CCCN(S(=O)(=O)c2ccccc2)CC1=O` (single isomer, unassigned) [Example 7], the Ki worked out at 23 nM.

Take `CC(C)C[C@@H](NC(=O)c1cc2cc(OCCN3CCCC3)ccc2o1)C(=O)NC1CCCN(S(=O)(=O)c2ccccc2)CC1=O` (single isomer, unassigned) [Example 13]: the Ki was found to be 32 nM.

Turning to `CC(C)C[C@@H](NC(=O)c1cc2cc(OCCN3CCCCC3)ccc2o1)C(=O)NC1CCCN(S(=O)(=O)c2ccccc2)CC1=O` (single isomer, unassigned) [Example 14], the Ki amounted to 67 nM.

On to `CC(C)C[C@@H](NC(=O)c1cc2cc(OCCN3CCOCC3)ccc2o1)C(=O)N[C@@H]1CCCN(S(=O)(=O)c2ccccn2)CC1=O` (single isomer, unassigned) [Example 19], for which the Ki amounted to 2 nM.

With `CC(C)C[C@@H](NC(=O)c1cc2cc(OCCN3CCOCC3)ccc2o1)C(=O)N[C@@H]1CCCN(S(=O)(=O)c2ccccn2)CC1=O` (single isomer, unassigned) [Example 20], the inhibition constant Ki came out at 8 nM.

On to `CC(C)C[C@@H](NC(=O)c1cc2cc(OCCN3CCOCC3)ccc2o1)C(=O)N[C@@H]1CCCN(S(=O)(=O)c2ccccc2)CC1=O` (stereo in doubt) [Example 6, 5-(2-Morpholin-4-yl-ethoxy)-benzofuran-2-carboxylic acid [(S)-1-(1-benzenesulfonyl-3-oxo-azepan-4-ylcarbamoyl)-3-methyl-butyl]amide], for which the Ki stood at 21 nM.

As for `CC(C)C[C@@H](NC(=O)c1cc2cc(OCCN3CCCC3)ccc2o1)C(=O)N[C@@H]1CCCN(S(=O)(=O)c2ccccc2)CC1=O` (stereo in doubt) [Example 8, 5-(2-Pyrrolidin-1-yl-ethoxy)-benzofuran-2-carboxylic acid [(S)-1-(1-benzenesulfonyl-3-oxo-azepan-4-ylcarbamoyl)-3-methyl-butyl]amide], the inhibitory constant (Ki) stood at 8 nM.

Consider `CC(C)C[C@@H](NC(=O)c1cc2ccccc2[nH]1)C(=O)N[C@@H]1CCCN(S(=O)(=O)c2ccccc2)CC1=O` (stereo in doubt) [Example 11, 1H-Indole-2-carboxylic acid [(S)-1-(1-benzenesulfonyl-3-oxo-azepan-4-ylcarbamoyl)-3-methyl-butyl]amide], for which the inhibition constant Ki came out at 100 nM.

On to `CC(C)C[C@@H](NC(=O)c1cc2ccccc2o1)C(=O)N[C@@H]1CCCN(S(=O)(=O)c2ccccc2)CC1=O` (stereo in doubt) [Example 12, Benzofuran-2-carboxylic acid [(S)-1-(1-benzenesulfonyl-3-oxo-azepan-4-ylcarbamoyl)-3-methyl-butyl]amide], for which the Ki turned out to be 16 nM.

For the compound `CC(C)C[C@@H](NC(=O)c1ccc2ccccc2n1)C(=O)N[C@@H]1CCCN(S(=O)(=O)c2ccccn2)CC1=O` (stereo in doubt) [Example 24, Quinoline-2-carboxylic acid {(S)-3-methyl-1-[3-oxo-1-(pyridine-2-sulfonyl)-azepan-4-ylcarbamoyl]-butyl}amide], the inhibitory constant (Ki) is 23 nM.

With `CC(C)C[C@@H](NC(=O)c1cc2ccccc2cn1)C(=O)N[C@@H]1CCCN(S(=O)(=O)c2ccccn2)CC1=O` (stereo in doubt) [Example 28, Isoquinoline-3-carboxylic acid {(S)-3-methyl-1-[3-oxo-1-(pyridine-2-sulfonyl)-azepan-4-ylcarbamoyl]-butyl}amide], the inhibitory constant (Ki) came to 24 nM.

With `CC(C)C[C@@H](NC(=O)c1nccc2ccccc12)C(=O)N[C@@H]1CCCN(S(=O)(=O)c2ccccn2)CC1=O` (stereo in doubt) [Example 29, Isoquinoline-1-carboxylic acid {(S)-3-methyl-1-[3-oxo-1-(pyridine-2-sulfonyl)-azepan-4-ylcarbamoyl]-butyl}amide], the Ki was determined as 11 nM.

As for `CC(C)C[C@@H](NC(=O)c1cc2ccccc2[nH]1)C(=O)N[C@@H]1CCCN(S(=O)(=O)c2ccccn2)CC1=O` (stereo in doubt) [Example 32, 1H-Indole-2-carboxylic acid {(S)-3-methyl-1-[3-oxo-1-(pyridine-2-sulfonyl)-azepan-4-ylcarbamoyl]-butyl}amide], the inhibition constant (Ki) came out at 17 nM.

Take `COc1ccc2oc(C(=O)N[C@H](CC(C)C)C(=O)N[C@@H]3CCCN(S(=O)(=O)c4ccccn4)CC3=O)cc2c1` (stereo in doubt) [Example 33, 5-Methoxy-benzofuran-2-carboxylic acid {(S)-3-methyl-1-[3-oxo-1-(pyridine-2-sulfonyl)-azepan-4-ylcarbamoyl]-butyl}amide]: the Ki came out at 14 nM.

As to `CC(C)C[C@@H](NC(=O)COc1ccc(F)cc1)C(=O)N[C@@H]1CCCN(S(=O)(=O)c2ccccn2)CC1=O` (stereo in doubt) [Example 37, (S)-2-[2-(4-Fluoro-phenoxy)-acetylamino]-4-methyl-pentanoic acid [3-oxo-(pyridine-2-sulfonyl)-azepan-4-yl]-amide], the inhibition constant Ki amounted to 33 nM.

Take `COc1ccc(S(=O)(=O)N2CCCC(NC(=O)C(CC(C)C)NC(=O)c3cc4ccccc4o3)C(=O)C2)cc1` (stereo in doubt) [Example 74, Benzofuran-2-carboxylic acid {(S)-1-[1-(4-methoxy-benzenesulfonyl)-3-oxo-azepan-4-ylcarbamoyl]-3-methyl-butyl}-amide]: the inhibitory constant (Ki) was 24 nM.

In the case of `Cc1cccc(S(=O)(=O)N2CCC[C@@H](NC(=O)[C@@H](CC(C)C)NC(=O)c3cc4ccccc4o3)C(=O)C2)n1` (stereo in doubt) [Example 172, Benzofuran-2-carboxylic acid {(S)-3-methyl-1-[1-(6-methyl-pyridine-2-sulfonyl)-3-oxo-azepan-4-ylcarbamoyl]-butyl}amide], the inhibition constant (Ki) was 7.4 nM.

Turning to `CC(C)CC(NC(=O)c1cc2ccccc2o1)C(=O)NC1CCC(C)N(S(=O)(=O)c2ccccn2)CC1=O` (stereo in doubt) [Example 181, Benzofuran-2-carboxylic acid {(S)-3-methyl-1-[(4S,7S)-7-methyl-3-oxo-1-(pyridine-2-sulfonyl)-azepan-4-ylcarbamoyl]-butyl}-amide], the Ki came out at 15 nM.

As to `CC(C)C[C@H](NC(=O)c1ccc2c(c1)OCO2)C(=O)N[C@H]1CCCN(Cc2ccccc2)CC1=O` [Example 1, benzo[1,3]dioxole-5-carboxylic acid [(S)-1-(1-benzyl-3-oxoazepan-4-ylcarbamoyl)-3-methyl-butyl]amide], the inhibition constant Ki stood at 58 nM.

As for `CC(C)C[C@H](NC(=O)c1ccc2ccccc2n1)C(=O)NC1CCCN(Cc2ccccc2)CC1=O` (stereo partly drawn) [Example 2, Quinoline-2-carboxylic acid [(S)-1-(1-benzyl-3-oxo-azepan-4-ylcarbamoyl)-3-methyl-butyl]amide], the inhibitory constant (Ki) turned out to be 44 nM.

With `CC(C)CCC(=O)N1CCCC(NC(=O)[C@@H](CC(C)C)NC(=O)c2cc3cc(OCCN4CCOCC4)ccc3o2)C(=O)C1` (stereo partly drawn) [Example 15, 5-(2-Morpholino-4-yl-ethoxy)-benzofuran-2-carboxylic acid {(S)-3-methyl-1-[1-(4-methyl-2entanoyl)-3-oxo-azepan-4-ylcarbamoyl]-butyl}-amide], the Ki came out at 24 nM.

Consider `CC(C)C[C@@H](NC(=O)c1cc2cc(OCCN3CCOCC3)ccc2o1)C(=O)N[C@@H]1CCCN(S(=O)(=O)c2ccccn2)CC1=O` [Example 18, 5-(2-Morpholino-4-yl-ethoxy)-benzofuran-2-carboxylic acid {(S)-3-methyl-1-[3-oxo-1-(pyridine-2-sulfonyl)-azepan-4-ylcarbamoyl]-butyl}1-amide], for which the inhibition constant Ki was determined as 6.3 nM.

`CC(C)C[C@H](NC(=O)c1cc2ccccc2o1)C(=O)N[C@H]1CCCN(S(=O)(=O)c2cccs2)CC1=O` [Example 38, Benzofuran-2-carboxylic acid {(S)-3-methyl-1-[3-oxo-1-(thiophene-2-sulfonyl)-azepan-4-ylcarbamoyl]-butyl}-amide]: the inhibition constant Ki worked out at 4.5 nM.

As to `COc1ccc2oc(C(=O)N[C@H](CC(C)C)C(=O)N[C@@H]3CCCN(S(=O)(=O)c4cccc[n+]4[O-])CC3=O)cc2c1` [Example 53, 5-Methoxy-benzofuran-2-carboxylic acid {(S)-3-methyl-1[3-oxo-1-(1-oxy-pyridine-2-sulfonyl)-azepan-4-ylcarbamoyl]-butyl}amide], the Ki came to 10 nM.
